The source of these data is publication PMC12557437, “Research towards selective inhibition of the CLK3 kinase” (Beilstein Journal of Organic Chemistry, 2025).

Entries after “also recorded” stand apart in the source; their conditions may differ.

Common to all, as to format: biochemical
One experiment relates to DYRK kinases. Description: radiometric kinase assay, summary for DYRK kinases. Conditions: DYRK1A, DYRK1B, DYRK2; listed as VS-77. From the text:
Finally, in order to complete our profiling of VS-77, we then measured its activity against the DYRK 1A, DYRK1B and DYRK2 kinases and the results are reported in Table 3.
This point will be discussed in the molecular modeling part below.

The next experiment concerns the target Mm_CLK1 (Mus musculus, UniProt P22518). Description: radiometric γ33P-ATP kinase assay (Eurofins). The procedure: (§1) The results are reported in Table 2 and in Supporting Information File 1.
(§2) 2- Kinase inhibition studies
(§3) Kinase enzymatic activities were assayed using both luminescent ADP detection assay
(§4) (ADP-GloTM assay kit, Promega, Madison, WI) or radiometric kinase assay. These
(§5) assays were performed using the protocols described in our previous publication. […]
(§6) 1.Brahmaiah, D.; Kanaka Durga Bhavani, A.; Aparna, P.; Sampath Kumar, N.; Solhi,
(§7) H.; Le Guevel, R.; Baratte, B.; Ruchaud, S.; Bach, S.; Singh Jadav, S.; Raji Reddy, C.;
(§8) Roisnel, T.; Mosset, P.; Levoin, N.; Grée, R. Bioorg.
(§9) R.; Baratte, B.; Robert, T.; Ruchaud, S.; Bach, S.; Jadav, S. S.; Reddy, C. […]

A further experiment deals with Mm_CLK2 (Mus musculus, UniProt O35491). The experiment can be described thus: radiometric γ33P-ATP kinase assay (Eurofins). The procedure: as §1, §2, §3, §4, §5, §6, §7, §8, §9
Sequence of Mm_CLK2 (O35491 whole entry): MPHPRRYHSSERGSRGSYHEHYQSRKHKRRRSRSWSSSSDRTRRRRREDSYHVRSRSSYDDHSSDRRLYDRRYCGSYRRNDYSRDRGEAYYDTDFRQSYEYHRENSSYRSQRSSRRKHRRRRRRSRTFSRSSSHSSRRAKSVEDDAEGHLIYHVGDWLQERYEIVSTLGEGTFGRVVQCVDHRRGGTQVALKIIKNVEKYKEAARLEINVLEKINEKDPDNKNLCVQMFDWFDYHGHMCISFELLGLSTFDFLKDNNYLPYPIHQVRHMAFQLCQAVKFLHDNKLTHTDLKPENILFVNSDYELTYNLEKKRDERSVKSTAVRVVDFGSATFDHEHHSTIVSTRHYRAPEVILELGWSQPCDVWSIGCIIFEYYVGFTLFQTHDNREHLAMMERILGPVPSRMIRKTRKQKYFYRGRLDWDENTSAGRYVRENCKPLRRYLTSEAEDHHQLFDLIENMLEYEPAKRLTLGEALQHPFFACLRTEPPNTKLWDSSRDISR
The target in the next experiment is Mm_CLK4 (Mus musculus, UniProt O35493). Description: radiometric γ33P-ATP kinase assay (Eurofins). The procedure:
as §1, §2, §3, §4, §5, §6, §7, §8, §9

[1] abbreviates: 15 µM ATP, dose-response, points in duplicate.

Sequence of Mm_CLK1 (P22518 whole entry): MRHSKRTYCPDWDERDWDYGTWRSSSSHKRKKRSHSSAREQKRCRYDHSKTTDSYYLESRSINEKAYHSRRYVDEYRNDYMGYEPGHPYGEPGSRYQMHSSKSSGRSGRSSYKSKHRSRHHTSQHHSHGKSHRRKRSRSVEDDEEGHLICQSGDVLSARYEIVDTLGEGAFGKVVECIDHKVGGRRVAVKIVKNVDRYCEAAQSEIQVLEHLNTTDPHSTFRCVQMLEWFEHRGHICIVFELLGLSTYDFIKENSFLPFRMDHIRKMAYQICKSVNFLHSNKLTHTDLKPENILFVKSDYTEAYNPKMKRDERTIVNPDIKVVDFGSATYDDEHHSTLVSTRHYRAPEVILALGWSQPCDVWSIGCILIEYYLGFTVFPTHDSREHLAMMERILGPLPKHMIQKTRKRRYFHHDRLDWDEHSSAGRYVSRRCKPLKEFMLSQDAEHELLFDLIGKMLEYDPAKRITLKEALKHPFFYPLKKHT
Sequence of Mm_CLK4 (O35493 whole entry): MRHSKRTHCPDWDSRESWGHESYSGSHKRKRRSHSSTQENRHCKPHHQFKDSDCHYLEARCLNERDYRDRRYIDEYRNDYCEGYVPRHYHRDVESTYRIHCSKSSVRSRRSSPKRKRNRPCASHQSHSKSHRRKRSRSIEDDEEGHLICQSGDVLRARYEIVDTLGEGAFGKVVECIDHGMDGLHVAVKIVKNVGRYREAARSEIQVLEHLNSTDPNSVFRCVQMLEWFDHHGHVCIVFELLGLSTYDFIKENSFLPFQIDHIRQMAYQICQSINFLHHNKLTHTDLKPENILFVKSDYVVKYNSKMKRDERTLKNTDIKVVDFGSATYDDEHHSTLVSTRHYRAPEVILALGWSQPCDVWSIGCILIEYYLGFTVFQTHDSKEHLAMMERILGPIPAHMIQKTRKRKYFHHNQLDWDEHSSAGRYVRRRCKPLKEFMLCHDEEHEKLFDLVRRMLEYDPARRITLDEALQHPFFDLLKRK

The IC50 is the midpoint of a concentration-inhibition curve. `Cc1ccc(-n2cc(COc3cccc4cnc(Nc5cc(Cl)cc(-c6cccc(C(=O)O)c6)c5)nc34)nn2)c([N+](=O)[O-])c1` [Compound 13b]: the “inhibition of DYRK kinases” value in the experiment with DYRK kinases is “low, but significant inhibition; also recorded: weak inhibitor”. The results for the IC50 on Mm_CLK1 (setting [1]), on Mm_CLK2 (setting [1]) and against Mm_CLK4 (setting [1]) were 127 nM, 61 nM and 62 nM, respectively. Besides, the Mm_CLK3/Mm_CLK1 on Mm_CLK1 (ratio of IC50 values) is 2.38. Besides, the Mm_CLK3/Mm_CLK2 on Mm_CLK2 (ratio of IC50 values) was determined as 4.97. Also, on Mm_CLK4 (ratio of IC50 values), the Mm_CLK3/Mm_CLK4 amounted to 4.89.
